Data: US20110044952A1, “AMPLIFICATION OF CANCER-SPECIFIC ONCOLYTIC VIRAL INFECTION BY HISTONE DEACETYLASE INHIBITORS” (Ottawa Health Research Institute, priority 2007, published 2011)

System: VSV-d51-GFP
Assay type: cell-based

## Nc1ccccc1NC(=O)c1ccc(CNC(=O)OCc2cccnc2)cc1 [MS-275]
  amount of GFP-positive cells as an indication of VSV replication: increased the amount of GFP-positive cells

## O=C(/C=C/c1cccc(S(=O)(=O)Nc2ccccc2)c1)NO [PXD101]
  amount of GFP-positive cells as an indication of VSV replication: increased the amount of GFP-positive cells

## CCCC(CCC)C(=O)O [VPA]
  amount of GFP-positive cells as an indication of VSV replication: little to no effect

## O=C(CCCCCCC(=O)Nc1ccccc1)NO [SAHA, suberoylanilide hydroxamic acid]
  amount of GFP-positive cells as an indication of VSV replication: increased the amount of GFP-positive cells
